From patent US9637470B2, “Treatment for substance use disorders and stress disorders” (Baylor College of Medicine, priority 2013, dated 2017)

Experiments:
[1] = tested on: alcohol preferring P rats; test: Binge alcohol / sucrose operant drinking in alcohol preferring P rats; type: in vivo, rat
Description: Animals were habituated to the gavage procedures by administering deionized water alone over a number of experimental sessions.
Animals were tested in 30 individual standard operant chambers (Coulbourn Instruments, Inc., Lehigh Valley, Pa.). The operant apparatus contained two levers, two dipper manipulanda, a cue light over each lever, and a house light. The dipper cup delivered either 10% (v/v) alcohol or 1% (w/v) sucrose reinforcers in a volume of 0.1 ml. To initiate excessive “binge” alcohol drinking, rats were adapted to a 12 h:12 h light/dark cycle which began at 4:30 pm (lights off) and lasted to 4:30 am (lights on). Rats were trained to orally self-administer EtOH for daily 30 min sessions under an FR1 schedule employing the sucrose fading technique. After a period of stabilization, the response requirement was then increased to an FR4 schedule. Responding was considered stable when responses were within ±20% of the average responses for five consecutive days, which took approximately 8 days. During the stabilization procedures, the animals were never deprived of food or fluid. Other cohorts of rats were given a 1% (w/v) concentration of sucrose and trained in an identical manner under the FR1, then FR4, schedule. […] Self-administration was assessed in 3×30 min FR4 operant sessions spaced 1 h apart during the dark cycle. […]

[2] = ADM&E studies: stability and protein binding; type: in vitro ADME

c1ccc2cc([C@H]([C@H]3CCCNC3)n3ncnn3)ccc2c1 [Example Compound 2, (3S)-3-[(S)-naphthalen-2-yl(2H-tetrazol-2-yl)methyl]piperidine]
binge operant responding for alcohol ([1]; oral 15, 30, 40, 60, or 80 mg/kg, p<0.001): significantly reduced
binge sucrose responding ([1]; oral, p>0.05, except for the 80 mg/kg dose): failed to significantly reduce
protein binding [2]: modest
stability [2]: stable
